The results in this text go back to patent US20240335395A1, “COMPOSITIONS AND METHODS FOR PREVENTING AND/OR TREATING DISEASE ASSOCIATED WITH IL-23 EXPRESSION” (ALLSPIM, priority 2021, published 2024).

Experiment [1] deals with MSU-induced leukocyte recruitment. Put plainly: MSU-induced leukocyte recruitment to the synovial cavity of knee joint. The experiment is classed as in vivo, mouse. Conditions: 20 h; 2,4-D 100 mg/kg, CLC 1 mg/kg, DEX 0.5 mg/kg. As for the experimental part:
2,4-D, isolated and purified from Chloranthus spicatus (purity≥98%), was purchased from BOC Science (Shirley, NY). Colchicine (CLC) (purity≥96%) and dexamethasone (DEX) (purity≥98%) were purchased from Sigma. Mice (six per group) were treated with 2,4-D (100 mg/kg or 20 mg/kg, i.p.), CLC (1 mg/kg or 0.2 mg/kg, i.p.), DEX (0.5 mg/kg or 0.1 mg/kg, i.p.), or vehicle (20% polyoxyethylenesorbitan monooleate (Tween 80) plus PBS) 30 min before intra-articular stimulus with MSU (100 μg/10 μL, i.a.). Six mice with intra-articular injection with PBS alone served as a negative control.
(§1) Induction of MSU-Induced Knee Joint Inflammation. Male ICR (CD-1) mice (35-45 g, 10-12 weeks) were purchased from VitalRiver Inc (Beijing, China) and were kept in an animal care facility under controlled temperature of 21±1° C., humidity, and on a light/dark cycle, with ad libitum access to water and standard laboratory chow diet. Animal care and handling procedures were approved by the Animal Ethics Committee of GZUCM (Guangzhou University of Chinese Medicine). All efforts were made to minimize animal suffering and to reduce the number of animals used. Joint inflammation was induced by the intra-articular (i.a.) administration of MSU (200 μg/20 μl) into the right and left knee joints of mice under inhaled 3% isoflurane anesthesia. Control animals received an injection (i.a.) of sterile PBS (20 μL).
Histopathological Analysis. Knee joint was collected 20 h after MSU injection, fixed with 10% paraformaldehyde in PBS, and then decalcified for 10 days with EDTA and embedded in paraffin for histological analysis. […] Results are expressed as leukocytes infiltrate (cell/field) counted at the inflammatory foci within synovial cavity as indicative of synovitis. […]
Statistical Analysis. Data were analyzed using GraphPad Prism statistical software (GraphPad Software, Inc., United States-500.288, version 5.0). Results are presented as means±SEM or SD of measurements made on 6 mice per group, with statistical significance determined by two-way ANOVA, comparing each group to the control (“Model”) group. […]

Another experiment relates to IL-1ß. Put plainly: MSU-induced IL-1ß in knee joint tissue (multiplex microassay). It is filed as in vivo, mouse. The settings on record: 2,4-D 100 mg/kg, CLC 1 mg/kg, DEX 0.5 mg/kg. As for the experimental part:
(§2) Mice (six per group) were treated with 2,4-D (100 mg/kg or 20 mg/kg, i.p.), CLC (1 mg/kg or 0.2 mg/kg, i.p.), DEX (0.5 mg/kg or 0.1 mg/kg, i.p.), or vehicle (20% polyoxyethylenesorbitan monooleate (Tween 80) plus PBS) 30 min before intra-articular stimulus with MSU (100 μg/10 μL, i.a.). Six mice with intra-articular injection with PBS alone served as a negative control.
as §1
(§3) Cytokine Measurement. Mice were anesthetized and sacrificed. Knee joints were collected and frozen in liquid nitrogen. Samples were then homogenized in 500 μl of buffer containing protease inhibitors, centrifuged (3600 rpm, 4° C., 15 min) and supernatants were used to determine Th1/Th2/Th17 cytokine levels using a multiplex microassay (Qantibody® mouse TH17 Array 1 kit, Cat. No.: QAM-TH17-1; RayBiotech, Norcross, GA). Results were expressed as picograms (pg) of cytokine/mg of tissue.
(§4) Statistical Analysis. […] For in vitro experiments, microassays were performed in quadruplicate. p<0.05 was considered significant (*p<0.05, **p<0.01, ***p<0.001).

Another experiment relates to IL-6. Put plainly: MSU-induced IL-6 in knee joint tissue (multiplex microassay). The experiment is classed as in vivo, mouse. The settings on record: 2,4-D 100 mg/kg, CLC 1 mg/kg, DEX 0.5 mg/kg. Here is the method:
as §2, §1, §3, §4

A further experiment concerns IL-10. Description: MSU-induced IL-10 in knee joint tissue (multiplex microassay). It is filed as in vivo, mouse. The settings on record: 2,4-D 100 mg/kg, DEX 0.5 mg/kg. As for the experimental part:
as §2, §1, §3, §4

The test system of experiment [2] is laser-induced choroidal neovascularization (CNV). Description: Laser-induced CNV in rats, fluorescein angiography leakage grading. It is filed as in vivo, rat. Conditions: 14 days, intravitreous injection. Here is the method:
Animals. All experiments were performed in accordance with the European Communities Council Directive 86/609/EEC and approved by local ethical committees (#2541-2015110210279792 v3). Six- to eight-week-old male Long Evans rats from the Janvier Breeding Center (Le Genest-Saint-Isle, France) were used to create a rat model of choroidal neovascularization (CNV) used as a model of human wet macular degeneration.
Laser-induced CNV. After anesthesia and dilation of the pupils, coverslips were positioned on the cornea as a contact glass. For rats, six or eight burns were performed 2 to 3 optic disc diameters away from the optic nerve with an Argon laser (532 nm) mounted on a slit lamp (175 mW, 0.1 s and 50 μm). Both eyes of animals received laser induction. The presence of a bubble witnessed the rupture of Bruch's membrane and confirmed a successful laser impact.
Treatments. After laser photocoagulation, rats were divided into 3 treatment groups: —Intravitreous injection (IVT) of 2,4-D (identified as “new treatment”, New T), —IVT of vehicle (PBS), —IVT of triamcinolone acetonide (Kenacort® 40 mg/ml; TA) (n=12 rats per group). The IVT consisted of 5 μl injected with a 31G needle mounted on a micro-thin (100 μl) syringe posterior to the limbus, avoiding the lens. IVT was performed immediately after laser had been performed. Animals were sacrificed at 7 days (n=6 per group- and at 16 days (n=6 per group).
Fluorescein angiography (FA). FA was performed 14 days after laser induction. […] Early and late phase angiograms were recorded 1-3 and 5-7 min respectively after fluorescein injection. […] Angiographic scores were established by 2 blinded observers according to the following criteria: grade 0, no hyper-fluorescence; grade 1, slight hyper-fluorescence with no increase in intensity nor in size; grade 2, hyper-fluorescence increasing in intensity but not in size; grade 3, hyper-fluorescence increasing both in intensity and size; grade 4, hyper-fluorescence size increase more than 2-diameter of the initial laser burn.

As for `COc1cc(O)c(OC)c(O)c1C(=O)/C=C/c1ccccc1` [2,4-D, 2′,4′-dihydroxy-3′,6′-dimethoxychalcone], the “reduction of MSU-induced leukocyte recruitment” value in experiment [1] was found to be 4.5 fold. Also, the “decrease of IL-1ß in knee joint tissue” value in the experiment on IL-1ß was 5.3 fold. The “decrease of IL-6 in knee joint tissue” value in the experiment with IL-6 is recorded as 7.6 fold. For the same molecule, the “decrease of IL-10 in knee joint tissue” value in the experiment on IL-10 came to 1.7 fold. Also, in experiment [2], the “percentage of impact graded 0-1” value was found to be 68% and the “percentage of impact in grade 3-4 (intense leakage)” value worked out at 13%. For the same molecule, in experiment [2] (Dunn's multiple comparison), the “grading score of impacts compared to vehicle” value was “significantly reduced”.
